Measurements reported in US20100311107A1, “Ultra-High Throughput Screening of Natural Products” (priority 2004, published 2010).
Read-outs that look alike come from different tables or passages of the source. Numbered stars: 1 amine (or outer) side, 2 acyl side, 3 side chain; on linkers, the order of the positions; unused ones are H or OH. Bridge positions count the residues as written; N and C are the ends. Square brackets hold non-standard residues; d marks the D form. Peptide text beside a SMILES is read from it. I, II: the chains in the order shown. Actinocin(9to1) = Cc1c2oc3c(C)ccc(C(=O)[*:1])c3nc-2c(C(=O)[*:2])c(N)c1=O; NMeV = CN[C@H](C(=O)O)C(C)C; Sar = CNCC(=O)O

What was measured:
Assay type in all cases: cell-based, Escherichia coli
[1] = system: E. coli screening strain CM435; parameters: Minimal inhibitory concentrations (MIC90) CM435: unit not given here
[2] = system: E. coli screening strain DR1234; parameters: unit not given here
Description: (§1) The screening strain, DR1234, was established after all desired drug-resistant genes listed in Table 5 had been delivered into the parent E. coli strain, MG1655, by methods described above. Its level of drug resistance was analyzed by the standard minimum inhibitory concentration (MIC) assay in MHB liquid medium (Chantot, et al., 1986, “Antibacterial activity of roxithromycin: a laboratory evaluation,” J. Antibiot, 39(5):660-8) and the result was summarized in Table 7.

[3] = system: lacZ reporter gene of the screening strains (CM191, CM242); test: S-Gal staining assay on solid medium; conditions: for lacZ reporter gene expression (S-Gal, blue-colored rings): screening strains on solid medium, drug-impregnated disks, PETG to suppress background
From the text: The screening strains' responses to DNA damaging agents were further confirmed by S-Gal staining assay. When mitomycin C and streptonigrin (both were well-known DNA damaging drugs) and S-Gal, the indicator, were applied to the screening strains growing on solid medium, blue-colored rings were visible around colonies in drug-impregnated disks. […] Actinomycin D was an exception. CM242 was not sensitive to this drug, although it disrupts DNA structure. PETG (2-phenyethyl B-D-thiogalactoside, Sigma, St Louis Mo.), was used in this experiment to suppress unspecific background activity.

[4] = system: E. coli screening strain DR1212; parameters: unit not given here
Description: (§2) The level of drug-resistance of screening strain DR1212 was analyzed by standard MIC assay in MHB liquid medium and the result was summarized in Table 11. Similar to screening strains, DR1234 and CM166, DR1212 is also resistant to drugs whose resistant genes have been introduced.

[5] = system: E. coli screening strain CM166; parameters: unit not given here
From the text: (§3) The level of drug resistance of CM166 was estimated by MIC assay carried out in MHB liquid medium and the results were summarized in Table 9. CM166 is resistant to antibacterial agents whose resistant genes have been incorporated into the strain, but not to other antibacterial drugs whose resistant genes are not incorporated.

E. coli MG1655 = system: E. coli MG1655; parameters: unit not given here
Description: as §1, §3, §2
(§4) The level of drug resistance of these screening strains (both intermediates and finals) was evaluated by standard MIC assay in MHB liquid medium and the result of Strain CM242 is summarized in Table 12.
(§5) The level of drug resistance of screening strains CM400 and CM435 was evaluated by standard MIC assay in MHB liquid medium and the results are summarized in Table 13. According to the MIC results, CM435 is hypersensitive to Bleomycin, Daunorucibin, Coumermycin A1 and Erythromycin. Screening strain CM435 and others, which are hypersensitive to certain types of antimicrobial agents, are advantageous in detecting bioactive compounds with low concentration in the screening system.

[6] = system: E. coli screening strain CM242; parameters: unit not given here
Description: as §4

[7] = system: E. coli screening strain CM400; parameters: unit not given here
Description: as §5

[8] = system: BW25113 strain containing drug-resistant genes inserted into the bioA locus; test: drug resistance characterization of strain with Tn7 cassette in bioA locus; conditions: for resistance conferred: streptothricin at 5 ug/ml, spectinomycin at 100 ug/ml; for resistance of strains having the promoter substitute: sat promoter replaced by Ptrc
screening strain CM166 = test: macrodroplet screening assay, zones of inhibition; conditions: soil actinomycetes in macrodroplets, DNA and biotin in medium
Description: After the period of incubation as described above, macrodroplets can be screened for biological activities by a unique technique termed macrodroplet screening assay. The biological activities of compounds secreted by the encapsulated microorganisms and contained within the macrodroplet beads can be detected by, for example, cell growth inhibition. In general, screening strains should first be cultured to a certain cell density (proper OD reads as described in section 5.3.3.) in liquid medium and then plated in semi-solid medium matrix (0.8%), which overlays the macrodroplet beads (see FIG. 1, item 140. Item 145 of FIG. 1 represents the top layer of semi-solid medium matrix containing a selected screening strain). After being incubated overnight, the screening strain can grow throughout the matrix, except in areas where macrodroplet beads release metabolites, which prevent the growth of the screening strain. The inhibition of cell growth may result in zones of inhibition around these beads (see item 155, FIG. 1), which usually can be detected visually.
Next, microorganisms from the soil samples collected as described above were encapsulated to form macrodroplets populated by a single microorganism in each bead, according to the pre-determined cfu count of the particular soil extract. In this process, an aliquot of the soil bacteria suspension was diluted in 10% glycerol to generate an inoculum of the required density. This adjusted suspension was then mixed with nutrient medium, counterselective agents (see above) and 1.4% sodium alginate and the resultant mixture processed through an Inotech Encapsulator® Research device, to produce gel-beads (called macrodroplets) by the formation of droplets of liquid from a fluid stream. The droplets solidified into gel-beads as they came into contact with a calcium chloride bath, which also contained nutrient medium and counterselective agents. After a defined hardening time the macrodroplets were washed to remove excess calcium chloride and to stop the hardening process. Smidsrod and Skjak-Braek, 1990, “Alginate as immobilization matrix for cells,” Trends Biotechnol. 8(3):71-8. Cured macrodroplets containing microorganisms were then spread in dishes from which excess fluid was removed. The macrodroplets subsequently allowed growth of the target organisms and production of secondary metabolites such as anti-microbial agents. Macrodroplets were spread evenly over the plate using a sterile spreader (5,000 particles per plate) and incubated at 28-30° C. for 7 days to allow the growth of the microorganism within, and the production of secondary metabolites.
CM166 (see section 5.3.1.b for details) was used as the test strain in this example. Two to three single colonies of CM166 were inoculated into a shake flask containing 10 ml of MHB medium with 40 μg/ml Tmp and 200 μg/ml Amp. After the cells were cultured at 35° C. for 2-3 hours, an OD reading was performed. If the OD reading was above 0.1 (equivalent to 2×10^8 cfu), the screening strain was ready for dilution. Otherwise, the strain needed to be incubated for longer time until the OD read reached >0.1. Medium for the macrodroplet assay (in 1 L Duran, add 10.5 g MHB power, 4 g agar (0.8%), and 1 g DNA) was autoclaved and cooled to ˜45° C., and ampicillin (25 mg/ml), tetracycline (10 mg/ml), daptomycin (20 mg/ml) and biotin (0.1 μg/ml) were added, together with 2.5 ml screening strain. […]

Compound | Minimal inhibitory concentrations (MIC90) CM435 ([1]; Table 13, MHB medium) | Minimal inhibitory concentrations (MIC90) DR1234 ([2]; Table 7, MHB medium) | Minimal inhibitory concentrations (MIC90) DR1212 ([4]; Table 11, MHB medium) | Minimal inhibitory concentrations (MIC90) CM166 ([5]; Table 9, MHB medium) | Minimal inhibitory concentrations (MIC90) MG1655 (E. coli MG1655; Table 7, MHB medium) | Minimal inhibitory concentrations (MIC90) MG1655 (E. coli MG1655; Table 9, MHB medium) | Minimal inhibitory concentrations (MIC90) MG1655 (E. coli MG1655; Table 11, MHB medium) | Minimal inhibitory concentrations (MIC90) MG1655 (E. coli MG1655; Table 13, MHB medium) | Minimal inhibitory concentrations (MIC90) MG1655 (E. coli MG1655; second Table 12, MHB medium) | Minimal inhibitory concentrations (MIC90) CM242 ([6]; second Table 12, MHB medium) | Minimal inhibitory concentrations (MIC90) CM400 ([7]; Table 13, MHB medium) | other results
Cc1c2oc3c(C)ccc(C(=O)N[C@@H]4C(=O)N[C@H](C(C)C)C(=O)N5CCC[C@H]5C(=O)N(C)CC(=O)N(C)[C@@H](C(C)C)C(=O)O[C@@H]4C)c3nc-2c(C(=O)N[C@@H]2C(=O)N[C@H](C(C)C)C(=O)N3CCC[C@H]3C(=O)N(C)CC(=O)N(C)[C@@H](C(C)C)C(=O)O[C@@H]2C)c(N)c1=O [Actinomycin D] (I: T[dV]P[Sar][NMeV] / II: T[dV]P[Sar][NMeV]; ester I:1-I:C, II:1-II:C; linker I:N-II:N via Actinocin(9to1)) | 256 | 100 | 50.0 | 50 | 200 | 200 | 200 | 256 | 200 | 200 | 256 | sensitivity of CM242 reporter to the drug ([3]; CM242, S-Gal staining): not sensitive
CCn1cc(C(=O)O)c(=O)c2ccc(C)nc21 [Nalidixic Acid] | >64 | 400 | 50 | 800 | 6.3 | 6.3 | 6.3 | 8 | 6.3 | >400 | >64 | lacZ reporter gene expression (S-Gal, blue-colored rings) [3]: not expressed
CN[C@@H]1[C@H](O)[C@H](NC)[C@H]2O[C@@]3(O)C(=O)C[C@@H](C)O[C@H]3O[C@@H]2[C@H]1O [Spectinomycin] | >64 | >400 | >400 | >400 | 6.3-12.5 | 6.3-12.5 | 6.3-12.5 | 16 | 6.3-12.5 | >400 | >64 | resistance conferred ([8]; native sat promoter): not; resistance of strains having the promoter substitute [8]: resistant
COc1cc(Cc2cnc(N)nc2N)cc(OC)c1OC [Trimethoprim] |  |  |  |  |  |  |  |  |  |  |  | Minimal inhibitory concentrations (MIC90) CM435 [1]: >64; Minimal inhibitory concentrations (MIC90) DR1234 [2]: >400; lacZ reporter gene expression (S-Gal, blue-colored rings) [3]: not expressed; Minimal inhibitory concentrations (MIC90) DR1212 [4]: >400; Minimal inhibitory concentrations (MIC90) CM166 [5]: >400; resistance conferred, concentration ([8]; BW25113 with Tn7 cassette in bioA, native sat promoter): at least 10 ug/ml; Minimal inhibitory concentrations (MIC90) CM242 [6]: >400; Minimal inhibitory concentrations (MIC90) CM400 [7]: >64
CCC(=O)Nc1c2sscc-2n(C)c1=O [aureothricin] |  |  |  |  |  |  |  |  |  |  |  | bioactive compound of actinomycete strains selected with CM166 (screening strain CM166): bioactive
O=C(O)/C=C/CC[C@@H]1SC[C@@H]2NC(=O)N[C@@H]21 [lydimycin] |  |  |  |  |  |  |  |  |  |  |  | bioactive compound of actinomycete strains selected with CM166 (screening strain CM166): bioactive
Bleomycin | 8 | 0.8 | ≦0.4 | 400 | ≦0.2-0.4 | ≦0.2-0.4 | ≦0.2-0.4 | 2 | ≦0.2-0.4 | 200 | >64 | sensitivity of CM435 according to the MIC results ([1]; MHB liquid medium): hypersensitive
Gentamicin | >64 | 400 | 200 | >400 | 0.8 | 0.8 | 0.8 | 1 | 0.8 | 100 | >64 | 
Neomycin | 8 | 100 | 25 | 25 | 0.8 | 0.8 | 0.8 | 2 | 0.8 | 50 | 16 | 
Streptothricin | 64 | 400 | 200 | 400 | 0.4-1.6 | 0.4-1.6 | 0.4-1.6 | 2 | 0.4-1.6 | >400 | >64 | resistance conferred ([8]; native sat promoter): not; resistance of strains having the promoter substitute [8]: resistant
